# Experimental data taken from patent US11319311B2, “Crystalline forms of Actinomycin D for treatment of cancer” (TRANSGENEX NANOBIOTECH, INC., priority 2018, dated 2022).
# Where two headings read alike, the source gives them in different places.
# Tests used:
# PANC-1 = assay: Monolayer cell culture IC50 (CellTiter-Glo viability), PANC-1; assay type: cell-based; conditions: Pancreatic, PANC-1, monolayer, 72 hours treatment, average of three replications
# Experimental: (§1) Cancer cell lines listed in Table 1 were subjected for testing anti-cancer potency or the half maximal inhibitory concentration (IC50) of the D-Actinomycin (DACT) molecular complexes.
# (§2) The SK-ES-1, U-2 OS, and SAOS-2 cells were cultured in a growth medium that is ATCC-formulated McCoy's 5a Medium Modified, Catalog No. 30-2007. The PC-3, PANC-1, SK-Mel-5, A549, H460, and H1299 were cultured in a growth medium that is ATCC-formulated Dulbecco's Modified Eagle's Medium (DMEM), Catalog No. 30-2002. The cells were seeded on 96-well microtiter plates with 3500 cells per well and cultured in an incubator (Model 3120, Thermo Scientific, USA) with a constant temperature at 37° C. and 5% carbon dioxide (CO2) gas for 24 hours.
# (§3) The new DACT-molecular complexes were made into a series with concentration of 200 nM to 40 nM, 8 nM, 1.6 nM, 0.32 nM, and 0.064 nM. 100 μl of each solution was then added into each well to bring out the final concentration of the drug treatment at 100 nM, 20 nM, 4 nM, 0.8 nM, 0.16 nM, or 0.032 nM, respectively.
# (§4) The treated cells in the 96 well plate was then further cultured at the same conditions for 72 hours and then subjected for a final cell viability measurement. The measurement used a homogeneous method to determine the number of metabolically active cells presented in each of treatments. A testing reagent for the measurement is a mixture solution of the CellTiter-Glo® 2.0 reagent (CTG, Promega Cat #G9243, USA) and growth medium in 1:1 ratio in this respect.
# (§5) The 96-well plate with the new molecular complex treated cells was taken out from incubator after the 72 hours of incubation, and the treatment solution in each well was removed using a multichannel pipette, and 100 μl of the testing reagent were added into each well. The plate was then placed on a plate shaker for 15 min. The plate was covered with a piece of aluminum foil to protect the CTG luminescence during the shaking time.
# (§6) Then 90 μl of the 100 μl testing reagent were transferred into an opaque-walled 96-well plate for the CTG luminescence reading on a plate reader (SynergyH4 Hybrid Reader, Biotek, USA). The luminescence intensity of each treatment was positively correlated with the number of cells survived during the treatments.
# (§7) All the treatment data was normalized by comparing with the control samples that had only growth medium without any molecular complexes. The half maximal inhibitory concentration (IC50) data was calculated using the nonlinear regression model and dose-responses (inhibition) curve built in the software. Each of treatments was performed in three replications each time and repeated three times for validation. The IC50 average […] (Avg) and standard deviation (STDV) were calculated based on the three replications.
# H460 = assay: Monolayer cell culture IC50 (CellTiter-Glo viability), H460; assay type: cell-based; conditions: Lung, 72 hours treatment, average of three replications
# Experimental: as §1, §2, §3, §4, §5, §6, §7
# PC-3 = assay: Monolayer cell culture IC50 (CellTiter-Glo viability), PC-3; assay type: cell-based; conditions: Prostate, PC-3, monolayer, 72 hours treatment, average of three replications
# Experimental: as §1, §2, §3, §4, §5, §6, §7
# SK-ES-1 = assay: Monolayer cell culture IC50 (CellTiter-Glo viability), SK-ES-1; assay type: cell-based, human; conditions: Sarcoma, SK-ES-1, monolayer, 72 hours treatment, average of three replications
# Experimental: as §1, §2, §3, §4, §5, §6, §7
# A549 = assay: Monolayer cell culture IC50 (CellTiter-Glo viability), A549; assay type: cell-based; conditions: Lung, 72 hours treatment, average of three replications
# Experimental: as §1, §2, §3, §4, §5, §6, §7
# U-2 OS = assay: Monolayer cell culture IC50 (CellTiter-Glo viability), U-2 OS; assay type: cell-based; conditions: Sarcoma, U-2 OS, monolayer, 72 hours treatment, average of three replications
# Experimental: as §1, §2, §3, §4, §5, §6, §7
# H1299 = assay: Monolayer cell culture IC50 (CellTiter-Glo viability), H1299; assay type: cell-based; conditions: Lung, 72 hours treatment, average of three replications
# Experimental: as §1, §2, §3, §4, §5, §6, §7
# [1] = Test I, read-out: IC50 Test (I) Avg
# [2] = Test II, read-out: IC50 Test (II) Avg
# [3] = Test III, read-out: IC50 Test (III) Avg
smiles,measurement,setting,value
CCCOC(=O)c1ccc(O)cc1.Cc1c2oc3c(C)ccc(C(=O)NC4C(=O)NC(C(C)C)C(=O)N5CCCC5C(=O)N(C)CC(=O)N(C)C(C(C)C)C(=O)OC4C)c3nc-2c(C(=O)NC2C(=O)NC(C(C)C)C(=O)N3CCCC3C(=O)N(C)CC(=O)N(C)C(C(C)C)C(=O)OC2C)c(N)c1=O (stereo not drawn) [DACT-propylparaben],IC50,PANC-1; [1],4.61 nM
same,IC50,PANC-1; [2],1.71 nM
same,IC50,PANC-1; [3],3.29 nM
same,IC50,H460; [1],0.21 nM
same,IC50,H460; [2],0.3 nM
same,IC50,H460; [3],0.15 nM
same,IC50,PC-3; [1],7.68 nM
same,IC50,PC-3; [2],4.52 nM
same,IC50,PC-3; [3],6.34 nM
same,IC50,SK-ES-1; [1],0.76 nM
same,IC50,SK-ES-1; [2],0.34 nM
same,IC50,SK-ES-1; [3],0.49 nM
same,IC50,A549; [1],1.39 nM
same,IC50,A549; [2],1.74 nM
same,IC50,A549; [3],1.63 nM
same,IC50,U-2 OS; [1],3.63 nM
same,IC50,U-2 OS; [2],3.85 nM
same,IC50,U-2 OS; [3],1.79 nM
same,IC50,H1299; [1],1.48 nM
same,IC50,H1299; [2],0.96 nM
same,IC50,H1299; [3],1.05 nM
